Assay results from patent publication US4761477A (priority 1984, dated 1988).
Like-named read-outs stand apart in the source and are kept apart here.

Assays:
adenylate cyclase [1] = test: Inhibition of adenylate cyclase activity of intestinal epithetial cells; type: biochemical; conditions: 200 nM, mice
Procedure: (§1) At 200 nM concentration, 13-propylberberin bisulfate inhibits about 50% of adenylate cyclase activity of intestinal epithetial cells or splenic lymphocytes in mice.

Solubility in water = type: physicochemical
adenylate cyclase [2] = test: Inhibition of adenylate cyclase activity of splenic lymphocytes; type: biochemical; conditions: 200 nM, mice
Procedure: as §1

cholera toxin = type: in vivo, SPF male Wister rats; conditions: secreta measured after 5 hours, rats
[3] = Stability: test compounds heated at 100° C. for 8 hours; type: physicochemical; conditions: for stability (in words): compared with the conventionally-known halides; for Changes in appearance / Percent remainder (%): heated at 100° C. for 8 hours; for Percent remainder (%): 480 min
Procedure: Test compounds were heated at 100° C. for 8 hours. Changes in their appearance and their percent remainders were studied.

Row | Structure (SMILES) | Solubility (Solubility in water) | stability (in words) [3] | Changes in appearance [3] | Percent remainder (%) [3] | further results
1 | CCCc1c2[n+](cc3c(OC)c(OC)ccc13)CCc1cc3c(cc1-2)OCO3 [13-Propylberberine bisulfate, 13-propylberberine bisulfate] | soluble | extremely stable | no changes | 100.0% | inhibition of adenylate cyclase activity (adenylate cyclase [1]): about 50%; Solubility (Solubility in water; listed as 13-propylberberine sulfate): readily soluble in water; inhibition of adenylate cyclase activity (adenylate cyclase [2]): about 50%; Inhibition rate (%) (cholera toxin; 0.5 mg/kg injected into ligated tract with 20 μg cholera toxin): 13.0%; Inhibition rate (%) (cholera toxin; 2 mg/kg injected into ligated tract with 20 μg cholera toxin): 40.0%
2 | CCCc1c2[n+](cc3c(OC)c(OC)ccc13)CCc1cc3c(cc1-2)OCO3 [13-Propylberberine iodide, reference compound] |  |  |  | 52.1% | 
3 | CCCc1c2[n+](cc3c(OC)c(OC)ccc13)CCc1cc3c(cc1-2)OCO3 [13-Propylberberine chloride, reference compound] |  |  |  | 48.7% | 
4 | CCCc1c2[n+](cc3c(OC)c(OC)ccc13)CCc1cc3c(cc1-2)OCO3 [13-Propylberberine primary phosphate, 13-propylberberine primary phosphate] | soluble | extremely stable | no changes | 99.8% | Solubility (Solubility in water; listed as 13-propylberberine phosphate): readily soluble in water
5 | CCCc1c2[n+](cc3c(OC)c(OC)ccc13)CCc1cc3c(cc1-2)OCO3 [13-Propylberberine bromide, 13-propylberberine bromide, reference compound] |  |  |  | 57.0% | 
6 | COc1ccc2cc3[n+](cc2c1OC)CCc1cc2c(cc1-3)OCO2 [Berberine chloride, reference compound] |  |  |  |  | Inhibition rate (%) (cholera toxin; 20 mg/kg injected into ligated tract with 20 μg cholera toxin): 8.0%
